The values that follow come from PubChem BioAssay (NCI).

Where “and” joins values, the source holds several entries; their conditions need not be identical. Identical values can stand only once.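 Cultured in 96-well plates, cells were exposed to test compound for 48 hours across five concentrations. At the GI50, growth is halved. TGI denotes the concentration required for complete inhibition of growth.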

Among the test systems are DMS 114 small cell lung; MALME-3M melanoma; SR leukemia; K-562 leukemia; HOP-62 NSCLC; HCC-2998 colon; RXF 393 renal; HCT-15 colon; OVCAR-3 ovarian; DMS 273 small cell lung.
What all share (assay): NCI-60 cell line screen, 48 h

In the case of `NS(=O)(=O)c1ccc(Nc2c3ccccc3nc3c(C(=O)N4CCN(CCO)CC4)cccc23)cc1`, the TGI in the experiment with DMS 114 small cell lung, with MALME-3M melanoma, with SR leukemia, with K-562 leukemia, with HOP-62 NSCLC and in the experiment on HCC-2998 colon was over 100 µM each time. The TGI with RXF 393 renal, in the experiment on HCT-15 colon, in the experiment with OVCAR-3 ovarian and in the experiment on DMS 273 small cell lung was over 100 µM in each case.
Take `O=[N+]([O-])c1ccc(C(Cl)C(Cl)c2ccc(C(Cl)C(Cl)c3ccc([N+](=O)[O-])cc3[N+](=O)[O-])cc2)c([N+](=O)[O-])c1` (configuration not stated): the TGI with DMS 114 small cell lung was 3.59 µM; with MALME-3M melanoma, 2.33 µM and 0.57 µM; in the experiment with SR leukemia it was over 62 µM; in the experiment with K-562 leukemia it was 0.438 µM; with HOP-62 NSCLC it was 6.2 µM; with HCC-2998 colon, 6.87 µM and 1.59 µM. The TGI was 2.33 µM and 1.34 µM with RXF 393 renal; 3.3 µM and 0.55 µM in the experiment with HCT-15 colon; 6.71 µM with DMS 273 small cell lung. Also, the GI50 is 0.243 µM with MALME-3M melanoma, 0.473 µM in the experiment with HCC-2998 colon, 0.31 µM with RXF 393 renal and 0.214 µM in the experiment on HCT-15 colon.
For `CCN(CC)CC(C)C(=O)/C=C/c1ccc(C)cc1` (configuration not stated), the TGI was 3.2 µM with DMS 114 small cell lung; 7.08 µM with MALME-3M melanoma; 8.19 µM in the experiment on SR leukemia; over 100 µM in the experiment on K-562 leukemia; 33.5 µM in the experiment with HOP-62 NSCLC; 9.28 µM in the experiment with HCC-2998 colon. In addition, the TGI with RXF 393 renal worked out at 4.31 µM; with HCT-15 colon, 5.71 µM; with OVCAR-3 ovarian, 9.93 µM; with DMS 273 small cell lung, 5.96 µM.
Turning to `Cc1ccc(S(=O)(=O)N2CCN(C=S)CC2)cc1`, the TGI with DMS 114 small cell lung, in the experiment on MALME-3M melanoma, with SR leukemia, with K-562 leukemia, with HOP-62 NSCLC and in the experiment with HCC-2998 colon was over 100 µM each time. Also, the TGI in the experiment on RXF 393 renal, in the experiment on HCT-15 colon, in the experiment with OVCAR-3 ovarian and in the experiment with DMS 273 small cell lung was over 100 µM throughout.
Turning to `O=C(N/C(=C\c1cccc([N+](=O)[O-])c1)c1nc2ccccc2[nH]1)c1ccccc1`, the TGI in the experiment on DMS 114 small cell lung, with MALME-3M melanoma, in the experiment on SR leukemia, in the experiment on K-562 leukemia, in the experiment on HOP-62 NSCLC and in the experiment on HCC-2998 colon was over 100 µM in each case. Further, the TGI in the experiment with HCT-15 colon, in the experiment on OVCAR-3 ovarian and in the experiment on DMS 273 small cell lung was over 100 µM throughout.
Consider `CSc1nc2nn(Cc3ccccc3)cc2c(=O)[nH]1`, for which the TGI in the experiment with DMS 114 small cell lung, in the experiment on MALME-3M melanoma, in the experiment with SR leukemia, in the experiment with K-562 leukemia, in the experiment with HOP-62 NSCLC and with HCC-2998 colon was over 100 µM in each case. The TGI with RXF 393 renal, in the experiment with HCT-15 colon, in the experiment with OVCAR-3 ovarian and in the experiment with DMS 273 small cell lung was over 100 µM in each case.
For `COc1cccc(/C=C/C(=O)c2sc(C(N)=S)nc2C)c1O`, the TGI in the experiment on DMS 114 small cell lung is over 100 µM; with MALME-3M melanoma, over 100 µM; in the experiment with SR leukemia it was 32.5 µM; in the experiment with K-562 leukemia, over 100 µM; in the experiment on HOP-62 NSCLC it was over 100 µM; in the experiment on HCC-2998 colon, over 100 µM. Also, the TGI is over 100 µM with RXF 393 renal, over 76.5 µM in the experiment on HCT-15 colon, over 100 µM in the experiment on OVCAR-3 ovarian and over 91.3 µM in the experiment on DMS 273 small cell lung.
As to `Cn1c(=O)nc2n(-c3ccc(Cl)cc3)c3cc(Cl)ccc3nc-2c1=O`, the TGI in the experiment on DMS 114 small cell lung was 3.8 µM; in the experiment on MALME-3M melanoma, 3.44 µM; with SR leukemia, 29.8 µM; in the experiment with K-562 leukemia it was 5.41 µM; in the experiment on HOP-62 NSCLC it was 33.2 µM; in the experiment on HCC-2998 colon it was 14.1 µM. Moreover, the TGI was determined as 9.25 µM with RXF 393 renal, 3.69 µM with HCT-15 colon, 4.19 µM in the experiment with OVCAR-3 ovarian and 12.5 µM in the experiment on DMS 273 small cell lung.
Take `O=C(/C=C/c1ccccc1O)c1ccc([N+](=O)[O-])cc1`: the TGI is 24.7 µM with DMS 114 small cell lung; over 100 µM with MALME-3M melanoma; 63.6 µM in the experiment on SR leukemia; 71.6 µM in the experiment with K-562 leukemia; 32.4 µM in the experiment on HOP-62 NSCLC; 30.1 µM with HCC-2998 colon. The TGI is 24.3 µM with RXF 393 renal, 46.8 µM in the experiment with HCT-15 colon, 25.5 µM in the experiment with OVCAR-3 ovarian and 52.6 µM in the experiment with DMS 273 small cell lung.
For the molecule `NS(=O)(=O)c1ccc(NC(=O)Cc2nc3ccccc3s2)cc1`, the TGI in the experiment with DMS 114 small cell lung was 29.2 µM; in the experiment with MALME-3M melanoma, 30.3 µM; in the experiment on SR leukemia, 71 µM; in the experiment with K-562 leukemia, 59.4 µM; in the experiment on HOP-62 NSCLC, 50.9 µM; in the experiment on HCC-2998 colon it was 35.8 µM. Besides, the TGI with RXF 393 renal was determined as 32.6 µM; with HCT-15 colon it was 32.3 µM; in the experiment with OVCAR-3 ovarian it was 30.4 µM; in the experiment on DMS 273 small cell lung, 33.1 µM.
Turning to `CCOC(=O)C(CCC(N)=O)(CCC(=O)OC)C(=O)OCC`, the TGI in the experiment on DMS 114 small cell lung, with MALME-3M melanoma, with SR leukemia, in the experiment with K-562 leukemia, in the experiment with HOP-62 NSCLC and with HCC-2998 colon was over 100 µM each time. Also, the TGI with RXF 393 renal, in the experiment on OVCAR-3 ovarian and in the experiment on DMS 273 small cell lung was over 100 µM each time.
For `COC(=O)c1ncc2c(=O)[nH]c3ccccc3c2c1C(=O)OC`, the TGI in the experiment on DMS 114 small cell lung, in the experiment on MALME-3M melanoma, with SR leukemia, in the experiment with K-562 leukemia, in the experiment with HOP-62 NSCLC and with HCC-2998 colon was over 100 µM in each case. Besides, the TGI in the experiment on RXF 393 renal, in the experiment on HCT-15 colon, with OVCAR-3 ovarian and in the experiment with DMS 273 small cell lung was over 100 µM each time.
`CC(C)(C)C(=O)Nc1cccc2oc(-c3ccccc3)cc12`: the TGI in the experiment with DMS 114 small cell lung, in the experiment on SR leukemia, in the experiment with K-562 leukemia, in the experiment with HOP-62 NSCLC, in the experiment with HCC-2998 colon and in the experiment with RXF 393 renal was over 100 µM throughout. The TGI with HCT-15 colon, in the experiment with OVCAR-3 ovarian and in the experiment with DMS 273 small cell lung was over 100 µM in each case.
As for `COc1cc(/C=C2\CCC/C(=C\c3ccc(O)c(OC)c3)C2=O)ccc1O`, the TGI was 4.48 µM with DMS 114 small cell lung; 5.85 µM and 3.47 µM with MALME-3M melanoma; > 61 µM and 25.7 µM in the experiment on K-562 leukemia; 8.32 µM and 3.95 µM in the experiment with HOP-62 NSCLC; 8.09 µM and 3.04 µM in the experiment on HCC-2998 colon; 6.17 µM and 2.94 µM in the experiment on RXF 393 renal. The TGI with HCT-15 colon was 8.44 µM and 3.36 µM; in the experiment with OVCAR-3 ovarian, 10.8 µM and 3.39 µM; in the experiment on DMS 273 small cell lung it was 3.07 µM. Further, the GI50 with MALME-3M melanoma is 0.276 µM; in the experiment on SR leukemia it was 1.08 µM; in the experiment on K-562 leukemia, 2.71 µM; in the experiment on HOP-62 NSCLC it was 1.79 µM; in the experiment with HCC-2998 colon, 1.67 µM; in the experiment with RXF 393 renal, 1.43 µM. For the same molecule, the GI50 in the experiment with HCT-15 colon was 1.49 µM; in the experiment on OVCAR-3 ovarian it was 1.56 µM.
